From patent US20060205641A1, “[…]4 polypeptides and […]4 polynucleotides” (SmithKline Beecham plc, priority 1999, published 2006) come the findings set out here.

What all share (assay type): cell-based
For experiment [1], the system named is HEK293 cells transfected with empty vector. Kind of experiment: FLIPR intracellular calcium assay, HEK293 cells transfected with empty vector. The note with it: result in words. For orientation: Calcium flux is commonly read through the fluorescence of an indicator in the cells.
The subject of experiment [2] is wild type HEK293 cells. Kind of experiment: FLIPR intracellular calcium assay, wild type HEK293 cells. The note with it: result in words.
Experiment [3] has as its target T1, hVR1 (Homo sapiens, UniProt Q8NER1).
T1 construct: expressed in transfected cells; host or cells: HEK293 (transient expression)
The settings on record: for activity at VR1: result in words; for pEC50 hVR1: HEK293 cells transiently expressing hVR1, Fluo-3 calcium, FLIPR, mean ± s.e.mean, n = 3-5, IA = inactive.

The target of experiment [4] is T2, hVR4 (Homo sapiens, UniProt Q9HBA0).
T2 construct: expressed in transfected cells; host or cells: HEK293 (transient expression)
Put plainly: FLIPR intracellular calcium assay, HEK293 cells transiently expressing hVR4 ([…]4). The note with it: for pEC50 hVR4: HEK293 cells transiently expressing hVR4, Fluo-3 calcium, FLIPR, mean ± s.e.mean, n = 3-5, IA = inactive; for effect on intracellular calcium in HEK293-hVR4 cells: result in words. The procedure: HEK293 cells transiently expressing hVR1 or hVR4 were seeded into FLIPR96 plates at 25,000 cells/well and cultured overnight. The cells were then loaded in medium containing 4 microM Fluo-3 for 2 hrs, at room temperature, in the dark. The cell plates were then washed 4× with Tyrode containing 1.5 mM calcium and 0.2% BSA. Agonist and antagonist plates were prepared in the same buffer. Cells were preincubated with either antagonist or buffer at room temperature for 30 mins. Agonists additions and calcium measurements were made in the FLIPR (Smart et al., (2000) Br J. Pharmacol. 129, 227-230).

T1 sequence (Q8NER1 whole entry): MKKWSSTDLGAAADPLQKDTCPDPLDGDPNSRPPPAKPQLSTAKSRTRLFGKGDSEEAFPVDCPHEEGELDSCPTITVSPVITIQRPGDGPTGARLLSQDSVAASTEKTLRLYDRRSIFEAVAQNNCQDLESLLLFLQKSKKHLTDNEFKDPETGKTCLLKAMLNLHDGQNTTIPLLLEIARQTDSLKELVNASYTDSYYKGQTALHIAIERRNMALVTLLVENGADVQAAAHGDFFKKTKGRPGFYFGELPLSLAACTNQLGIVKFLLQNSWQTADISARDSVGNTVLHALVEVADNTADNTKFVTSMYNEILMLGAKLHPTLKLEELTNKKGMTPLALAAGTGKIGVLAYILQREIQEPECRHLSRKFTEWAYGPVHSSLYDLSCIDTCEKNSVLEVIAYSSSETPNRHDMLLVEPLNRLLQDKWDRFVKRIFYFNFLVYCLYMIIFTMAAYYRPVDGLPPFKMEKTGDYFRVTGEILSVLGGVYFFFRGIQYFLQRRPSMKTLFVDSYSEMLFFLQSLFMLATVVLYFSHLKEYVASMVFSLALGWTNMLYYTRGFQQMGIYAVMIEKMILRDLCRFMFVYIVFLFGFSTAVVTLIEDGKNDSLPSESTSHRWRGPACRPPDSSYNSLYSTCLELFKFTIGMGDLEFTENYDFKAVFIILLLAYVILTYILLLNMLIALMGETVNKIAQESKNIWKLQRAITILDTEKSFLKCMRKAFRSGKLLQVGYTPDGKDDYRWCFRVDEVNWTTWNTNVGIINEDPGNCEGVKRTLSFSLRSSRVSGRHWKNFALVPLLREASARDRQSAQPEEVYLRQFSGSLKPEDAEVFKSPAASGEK
T2 sequence (Q9HBA0 whole entry): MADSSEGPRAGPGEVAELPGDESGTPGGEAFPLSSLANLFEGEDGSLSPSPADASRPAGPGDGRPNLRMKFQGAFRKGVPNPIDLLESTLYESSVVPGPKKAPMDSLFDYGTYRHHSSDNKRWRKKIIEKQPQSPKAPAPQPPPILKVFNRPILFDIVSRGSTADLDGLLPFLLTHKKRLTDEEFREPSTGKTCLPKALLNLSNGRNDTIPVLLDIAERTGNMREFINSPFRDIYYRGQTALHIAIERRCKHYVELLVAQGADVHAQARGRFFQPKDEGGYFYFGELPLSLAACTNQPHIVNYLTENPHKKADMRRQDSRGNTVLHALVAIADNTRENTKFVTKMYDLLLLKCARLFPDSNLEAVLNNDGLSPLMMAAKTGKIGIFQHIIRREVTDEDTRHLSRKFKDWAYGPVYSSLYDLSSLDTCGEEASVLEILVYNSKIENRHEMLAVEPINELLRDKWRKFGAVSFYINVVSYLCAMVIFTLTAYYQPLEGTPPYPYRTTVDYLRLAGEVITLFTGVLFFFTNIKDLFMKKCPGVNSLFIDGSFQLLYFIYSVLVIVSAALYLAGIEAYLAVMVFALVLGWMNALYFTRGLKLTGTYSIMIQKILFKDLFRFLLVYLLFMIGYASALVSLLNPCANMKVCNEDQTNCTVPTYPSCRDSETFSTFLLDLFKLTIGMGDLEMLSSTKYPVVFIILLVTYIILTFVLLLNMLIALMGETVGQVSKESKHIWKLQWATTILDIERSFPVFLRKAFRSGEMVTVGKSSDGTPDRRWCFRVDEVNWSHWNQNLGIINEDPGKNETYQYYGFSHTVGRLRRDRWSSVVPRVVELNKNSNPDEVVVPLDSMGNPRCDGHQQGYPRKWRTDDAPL

In the case of `CCCCCCCCCC(=O)O[C@@H]1[C@@H](C)[C@@]2(O)[C@@H](C=C(CO)C[C@@]3(O)C(=O)C(C)=C[C@@H]23)[C@@H]2C(C)(C)[C@]12OC(=O)CCCCCCCCC` [4αPDD, 4α-phorbol-12,13-didecanoate], the “effect on intracellular calcium in cells transfected with empty vector” value in experiment [1] is listed as “without effect”. The “effect on intracellular calcium in wild type HEK293 cells” value in experiment [2] is reported as “without effect”. The “activity at VR1” value in experiment [3] was “inactive”. In experiment [4], the “pEC50 hVR4” value is 5.73 ± 0.06 and the “effect on intracellular calcium in HEK293-hVR4 cells” value is “increased intracellular calcium”. Further, the “selectivity (conclusion)” value in experiment [4] (VR4 versus VR1, result in words) is on record as “In conclusion, 4αPDD acts as a VR4 selective agonist”.
As to `C=C(C)[C@]12C[C@@H](C)[C@@]34O[C@](Cc5ccccc5)(O[C@@H]1[C@@H]3C=C(COC(=O)Cc1ccc(O)c(OC)c1)C[C@]1(O)C(=O)C(C)=C[C@@H]41)O2` [RTX], the “pEC50 hVR1” value in experiment [3] amounted to 8.93 ± 0.20.
In the case of `CCCCCCCCCCCCCC(=O)O[C@@H]1[C@@H](C)[C@@]2(O)[C@@H](C=C(CO)C[C@]3(O)C(=O)C(C)=C[C@@H]23)[C@@H]2C(C)(C)[C@]12OC(C)=O` [PMA, phorbol 12-myristate 13-acetate], the “effect on intracellular calcium in cells transfected with empty vector” value in experiment [1] is recorded as “without effect”. In addition, in experiment [2], the “effect on intracellular calcium in wild type HEK293 cells” value was “without effect”. For the same molecule, in experiment [3], the “pEC50 hVR1” value was 7.86 ± 0.06 and the “activity at VR1” value was “partial agonist”. Besides, the Emax in experiment [3] (at VR1, compared to capsaicin and RTX) was 0.46. Also, in experiment [4], the “pEC50 hVR4” value is 6.64 ± 0.06 and the “effect on intracellular calcium in HEK293-hVR4 cells” value was “increased intracellular calcium”.
